Literature values in patent US12611407B2, “Gastro-resistant high-strength formulation containing posaconazole” (Alfred E. Tiefenbacher (GmbH & Co. KG), priority 2020, dated 2026).

Assays:
[1] = not given; remark: listed apart in the source

SMILES | aqueous solubility | water solubility compared with form I | stability of the crystalline form ([1]; normal storage conditions or specific stress conditions) | stability in an aqueous suspension compared with form I ([1]; aqueous suspension)
CC[C@@H]([C@H](C)O)n1ncn(-c2ccc(N3CCN(c4ccc(OC[C@@H]5CO[C@@](Cn6cncn6)(c6ccc(F)cc6F)C5)cc4)CC3)cc2)c1=O [Posaconazole] | low aqueous solubility | – | – | –
CC[C@@H]([C@H](C)O)n1ncn(-c2ccc(N3CCN(c4ccc(OC[C@@H]5CO[C@@](Cn6cncn6)(c6ccc(F)cc6F)C5)cc4)CC3)cc2)c1=O [form Y, posaconazole] | – | better water solubility | as stable as form I | –
CC[C@@H]([C@H](C)O)n1ncn(-c2ccc(N3CCN(c4ccc(OC[C@@H]5CO[C@@](Cn6cncn6)(c6ccc(F)cc6F)C5)cc4)CC3)cc2)c1=O [form IV, posaconazole] | – | better water solubility | – | better stability in an aqueous suspension
